Species: Rattus norvegicus
Test: DrugMatrix - Regimen: Daily Repeat
Assay type: toxicity, organism-based, Sprague-Dawley
Set-up: regimen Daily Repeat, gender Male, age 6-8 weeks
Details: in vivo, sc, route subcutaneous, […]; for ABSOLUTE BASOPHIL / ABSOLUTE EOSINOPHIL / ABSOLUTE LYMPHOCYTE / ABSOLUTE MONOCYTE / ABSOLUTE SEGMENTED NEUTROPHIL / BASOPHIL / EOSINOPHIL / ERYTHROCYTE COUNT / HEMATOCRIT / HEMOGLOBIN / LEUKOCYTE COUNT / LYMPHOCYTE / MEAN CORPUSCULAR HEMOGLOBIN / MEAN CORPUSCULAR HEMOGLOBIN CONCENTRATION / MEAN CORPUSCULAR VOLUME / MONOCYTE / NEUTROPHIL / NUCLEATED RED BLOOD CELLS / PLATELET COUNT: tissue Blood; for ALANINE AMINOTRANSFERASE / ALBUMIN / ALKALINE PHOSPHATASE / ASPARTATE AMINOTRANSFERASE / BLOOD UREA NITROGEN / CARBON DIOXIDE / CHLORIDE / CHOLESTEROL / CREATINE PHOSPHOKINASE / CREATININE / GLUCOSE / LACTATE DEHYDROGENASE / LIPASE / PHOSPHORUS / POTASSIUM / SODIUM / TOTAL BILIRUBIN / TOTAL PROTEIN / URIC ACID: tissue Plasma
[1] = 68 mg/kg, 72 h, dose level High, time 3 day
[2] = 68 mg/kg, 120 h, dose level High, time 5 day
[3] = 72 h, dose 6.8 mg/Kg, dose level Low, time 3 day
[4] = 120 h, dose 6.8 mg/Kg, dose level Low, time 5 day

## Oc1cccc2cccnc12 [OXYQUINOLINE]
[1]
  ABSOLUTE BASOPHIL: 0 CELLS/uL
  ABSOLUTE EOSINOPHIL: 246.33 CELLS/uL
  ABSOLUTE LYMPHOCYTE: 13064.33 CELLS/uL
  ABSOLUTE MONOCYTE: 405.33 CELLS/uL
  ABSOLUTE SEGMENTED NEUTROPHIL: 1850.67 CELLS/uL
  BASOPHIL: 0%
  EOSINOPHIL: 1.67%
  ERYTHROCYTE COUNT: 5.38 x10E6/uL
  HEMATOCRIT: 34.33%
  HEMOGLOBIN: 12.8 G/DL
  LEUKOCYTE COUNT: 15.57 x10E3/uL
  LYMPHOCYTE: 83.67%
  MEAN CORPUSCULAR HEMOGLOBIN: 23.83 pg
  MEAN CORPUSCULAR HEMOGLOBIN CONCENTRATION: 37.33 G/DL
  MEAN CORPUSCULAR VOLUME: 63.87 fL
  MONOCYTE: 2.67%
  NEUTROPHIL: 12%
  NUCLEATED RED BLOOD CELLS: 0 /100WBC
  PLATELET COUNT: 1290 x10E3/uL
  ALANINE AMINOTRANSFERASE: 49.33 u/L
  ALBUMIN: 3.73 G/DL
  ALKALINE PHOSPHATASE: 444 u/L
  ASPARTATE AMINOTRANSFERASE: 72 u/L
  BLOOD UREA NITROGEN: 18.67 mg/dL
  CARBON DIOXIDE: 26 mmol/L
  CHLORIDE: 105 MEQ/L
  CHOLESTEROL: 65.33 mg/dL
  CREATINE PHOSPHOKINASE: 160.33 u/L
  CREATININE: 0.13 mg/dL
  GLUCOSE: 169 mg/dL
  LACTATE DEHYDROGENASE: 87.67 u/L
  LIPASE: 8.67 u/L
  PHOSPHORUS: 12.4 mg/dL
  POTASSIUM: 6.22 MEQ/L
  SODIUM: 146.43 MEQ/L
  TOTAL BILIRUBIN: 0.2 mg/dL
  TOTAL PROTEIN: 5.63 G/DL
  URIC ACID: 1.07 mg/dL
[2]
  ABSOLUTE BASOPHIL: 0 CELLS/uL
  ABSOLUTE EOSINOPHIL: 367.33 CELLS/uL
  ABSOLUTE LYMPHOCYTE: 11402.67 CELLS/uL
  ABSOLUTE MONOCYTE: 397.67 CELLS/uL
  ABSOLUTE SEGMENTED NEUTROPHIL: 1465.67 CELLS/uL
  BASOPHIL: 0%
  EOSINOPHIL: 2.67%
  ERYTHROCYTE COUNT: 5.88 x10E6/uL
  HEMATOCRIT: 36.73%
  HEMOGLOBIN: 13.63 G/DL
  LEUKOCYTE COUNT: 13.63 x10E3/uL
  LYMPHOCYTE: 83.33%
  MEAN CORPUSCULAR HEMOGLOBIN: 23.2 pg
  MEAN CORPUSCULAR HEMOGLOBIN CONCENTRATION: 37.13 G/DL
  MEAN CORPUSCULAR VOLUME: 62.53 fL
  MONOCYTE: 3%
  NEUTROPHIL: 11%
  NUCLEATED RED BLOOD CELLS: 0 /100WBC
  PLATELET COUNT: 1567 x10E3/uL
  ALANINE AMINOTRANSFERASE: 37.67 u/L
  ALBUMIN: 3.87 G/DL
  ALKALINE PHOSPHATASE: 326.67 u/L
  ASPARTATE AMINOTRANSFERASE: 67 u/L
  BLOOD UREA NITROGEN: 16.67 mg/dL
  CARBON DIOXIDE: 25.33 mmol/L
  CHLORIDE: 105 MEQ/L
  CHOLESTEROL: 75.33 mg/dL
  CREATINE PHOSPHOKINASE: 175 u/L
  CREATININE: 0.16 mg/dL
  GLUCOSE: 162 mg/dL
  LACTATE DEHYDROGENASE: 86.67 u/L
  LIPASE: 8 u/L
  PHOSPHORUS: 13.33 mg/dL
  POTASSIUM: 6.17 MEQ/L
  SODIUM: 147.4 MEQ/L
  TOTAL BILIRUBIN: 0.17 mg/dL
  TOTAL PROTEIN: 6.03 G/DL
  URIC ACID: 2.03 mg/dL
[3]
  ABSOLUTE BASOPHIL: 0 CELLS/uL
  ABSOLUTE EOSINOPHIL: 0 CELLS/uL
  ABSOLUTE LYMPHOCYTE: 14772 CELLS/uL
  ABSOLUTE MONOCYTE: 208 CELLS/uL
  ABSOLUTE SEGMENTED NEUTROPHIL: 1086.67 CELLS/uL
  BASOPHIL: 0%
  EOSINOPHIL: 0%
  ERYTHROCYTE COUNT: 5.93 x10E6/uL
  HEMATOCRIT: 37.03%
  HEMOGLOBIN: 13.73 G/DL
  LEUKOCYTE COUNT: 16.07 x10E3/uL
  LYMPHOCYTE: 91.33%
  MEAN CORPUSCULAR HEMOGLOBIN: 23.23 pg
  MEAN CORPUSCULAR HEMOGLOBIN CONCENTRATION: 37.07 G/DL
  MEAN CORPUSCULAR VOLUME: 62.63 fL
  MONOCYTE: 1.33%
  NEUTROPHIL: 7.33%
  NUCLEATED RED BLOOD CELLS: 0.33 /100WBC
  PLATELET COUNT: 1308.67 x10E3/uL
  ALANINE AMINOTRANSFERASE: 45.67 u/L
  ALBUMIN: 4.3 G/DL
  ALKALINE PHOSPHATASE: 363.67 u/L
  ASPARTATE AMINOTRANSFERASE: 73.33 u/L
  BLOOD UREA NITROGEN: 15 mg/dL
  CARBON DIOXIDE: 24.33 mmol/L
  CHLORIDE: 103 MEQ/L
  CHOLESTEROL: 68.67 mg/dL
  CREATINE PHOSPHOKINASE: 130.33 u/L
  CREATININE: 0.2 mg/dL
  GLUCOSE: 142.67 mg/dL
  LACTATE DEHYDROGENASE: 83.33 u/L
  LIPASE: 8.67 u/L
  PHOSPHORUS: 11.27 mg/dL
  POTASSIUM: 6.77 MEQ/L
  SODIUM: 146.07 MEQ/L
  TOTAL BILIRUBIN: 0.2 mg/dL
  TOTAL PROTEIN: 5.57 G/DL
  URIC ACID: 1.63 mg/dL
[4]
  ABSOLUTE BASOPHIL: 0 CELLS/uL
  ABSOLUTE EOSINOPHIL: 182.67 CELLS/uL
  ABSOLUTE LYMPHOCYTE: 12749.33 CELLS/uL
  ABSOLUTE MONOCYTE: 601.33 CELLS/uL
  ABSOLUTE SEGMENTED NEUTROPHIL: 1500 CELLS/uL
  BASOPHIL: 0%
  EOSINOPHIL: 1.33%
  ERYTHROCYTE COUNT: 6.16 x10E6/uL
  HEMATOCRIT: 37.9%
  HEMOGLOBIN: 13.87 G/DL
  LEUKOCYTE COUNT: 15.03 x10E3/uL
  LYMPHOCYTE: 84.67%
  MEAN CORPUSCULAR HEMOGLOBIN: 22.53 pg
  MEAN CORPUSCULAR HEMOGLOBIN CONCENTRATION: 36.6 G/DL
  MEAN CORPUSCULAR VOLUME: 61.5 fL
  MONOCYTE: 4%
  NEUTROPHIL: 10%
  NUCLEATED RED BLOOD CELLS: 0 /100WBC
  PLATELET COUNT: 1278.67 x10E3/uL
  ALANINE AMINOTRANSFERASE: 45 u/L
  ALBUMIN: 4.2 G/DL
  ALKALINE PHOSPHATASE: 341 u/L
  ASPARTATE AMINOTRANSFERASE: 77 u/L
  BLOOD UREA NITROGEN: 19 mg/dL
  CARBON DIOXIDE: 24.33 mmol/L
  CHLORIDE: 107 MEQ/L
  CHOLESTEROL: 75.33 mg/dL
  CREATINE PHOSPHOKINASE: 227.33 u/L
  CREATININE: 0.17 mg/dL
  GLUCOSE: 154.33 mg/dL
  LACTATE DEHYDROGENASE: 324 u/L
  LIPASE: 9 u/L
  PHOSPHORUS: 12.23 mg/dL
  POTASSIUM: 6.39 MEQ/L
  SODIUM: 146.97 MEQ/L
  TOTAL BILIRUBIN: 0.13 mg/dL
  TOTAL PROTEIN: 6.37 G/DL
  URIC ACID: 1.5 mg/dL

— ChEMBL document CHEMBL3885881, “DrugMatrix”
